{"source": "EPA's ToxValDB 9.5 (doi:10.2903/j.efsa.2008.119r)", "key": {"Bibionidae": {"tested_on": "Bibionidae", "details": "chronic/long-term; duration: 28 days"}, "Coturnix japonica": {"tested_on": "Coturnix japonica", "details": "reproduction developmental"}, "Daphnia magna": {"tested_on": "Daphnia magna", "details": "chronic/long-term; duration: 21 days; reproduction"}, "Oryctolagus sp.": {"tested_on": "Oryctolagus sp.", "details": "reproduction developmental; mortality"}, "Mus musculus": {"tested_on": "Mus musculus", "details": "chronic; duration: 2 years; hematological"}, "Oncorhynchus mykiss": {"tested_on": "Oncorhynchus mykiss", "details": "chronic/long-term; duration: 21 days; growth"}, "Tagia sp.": {"tested_on": "Tagia sp.", "details": "chronic/long-term; duration: 56 days"}, "Typhlodromus pyri": {"tested_on": "Typhlodromus pyri", "details": "not reported; mortality"}}}
{"smiles": "COC(=O)c1cc(Oc2ccc(Cl)cc2Cl)ccc1[N+](=O)[O-]", "note": "[Bifenox]", "values": [{"measurement": "NOEC", "setting": "Bibionidae", "value": 0.015, "unit": "mg/L"}, {"measurement": "NOEC", "setting": "Coturnix japonica", "value": 290, "unit": "mg/kg-day"}, {"measurement": "NOEC", "setting": "Daphnia magna", "value": 0.00015, "unit": "mg/L"}, {"measurement": "NOAEL", "setting": "Oryctolagus sp.", "value": 50, "unit": "mg/kg-day"}, {"measurement": "NOAEL", "setting": "Mus musculus", "value": 30, "unit": "mg/kg-day"}, {"measurement": "NOEC", "setting": "Oncorhynchus mykiss", "value": 0.0091, "unit": "mg/L"}, {"measurement": "NOEC", "setting": "Tagia sp.", "value": 5.1, "unit": "mg/kg"}, {"measurement": "NOAEL", "setting": "Rattus norvegicus; chronic", "value": 16, "unit": "mg/kg-day"}, {"measurement": "NOAEL", "setting": "Rattus norvegicus; reproduction developmental, reproduction", "value": 44.5, "unit": "mg/kg-day"}, {"measurement": "LEL", "setting": "Typhlodromus pyri", "value": 720, "unit": "g/ha"}]}
